Drawing on patent US10023570B2 (Array BioPharma, Inc., priority 2015, dated 2018), this text covers IC50 for 27 molecules.

pIC50: −log10 of the molar value.

Sequence of human KDR protein in HEK-293 cells (P35968 20-1356): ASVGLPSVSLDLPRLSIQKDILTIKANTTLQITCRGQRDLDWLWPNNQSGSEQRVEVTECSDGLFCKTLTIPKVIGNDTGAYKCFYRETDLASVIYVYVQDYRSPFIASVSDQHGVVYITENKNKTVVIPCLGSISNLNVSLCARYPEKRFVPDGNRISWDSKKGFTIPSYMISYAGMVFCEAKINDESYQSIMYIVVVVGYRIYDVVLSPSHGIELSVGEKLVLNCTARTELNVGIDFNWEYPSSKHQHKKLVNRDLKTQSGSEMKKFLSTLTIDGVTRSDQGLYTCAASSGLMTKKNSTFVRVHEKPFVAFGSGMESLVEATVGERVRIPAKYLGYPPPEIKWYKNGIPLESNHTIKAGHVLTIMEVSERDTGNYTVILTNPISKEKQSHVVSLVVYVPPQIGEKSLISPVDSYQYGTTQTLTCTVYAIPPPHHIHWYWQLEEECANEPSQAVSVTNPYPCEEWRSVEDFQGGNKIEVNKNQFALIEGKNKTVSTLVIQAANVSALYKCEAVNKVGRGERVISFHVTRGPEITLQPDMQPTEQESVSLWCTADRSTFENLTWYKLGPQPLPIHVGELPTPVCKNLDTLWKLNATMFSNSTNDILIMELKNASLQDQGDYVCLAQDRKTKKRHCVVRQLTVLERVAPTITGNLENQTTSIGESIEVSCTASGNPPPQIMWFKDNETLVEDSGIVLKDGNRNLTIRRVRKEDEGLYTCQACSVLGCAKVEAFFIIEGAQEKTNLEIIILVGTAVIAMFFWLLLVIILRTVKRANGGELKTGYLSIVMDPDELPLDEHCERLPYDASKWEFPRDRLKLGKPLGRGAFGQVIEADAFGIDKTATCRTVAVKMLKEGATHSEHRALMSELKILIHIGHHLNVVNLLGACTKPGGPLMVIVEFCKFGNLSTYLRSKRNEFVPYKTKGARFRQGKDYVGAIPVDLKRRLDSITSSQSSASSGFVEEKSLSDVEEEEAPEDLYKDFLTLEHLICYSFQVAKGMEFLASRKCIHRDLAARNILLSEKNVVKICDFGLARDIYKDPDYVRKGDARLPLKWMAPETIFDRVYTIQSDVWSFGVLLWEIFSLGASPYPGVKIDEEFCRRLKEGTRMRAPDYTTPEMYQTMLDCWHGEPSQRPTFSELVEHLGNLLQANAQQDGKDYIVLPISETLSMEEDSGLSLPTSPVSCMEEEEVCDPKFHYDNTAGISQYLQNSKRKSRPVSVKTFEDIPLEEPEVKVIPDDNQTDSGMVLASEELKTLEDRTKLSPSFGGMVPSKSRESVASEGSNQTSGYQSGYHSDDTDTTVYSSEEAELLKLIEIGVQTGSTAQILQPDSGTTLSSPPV

The target of the first experiment is human KDR protein in HEK-293 cells (Homo sapiens (Human), UniProt P35968). In words: KDR Cell Assay (phospho-KDR in HEK-293 cells expressing inducible KDR). Type of experiment: cell-based. The note with it: pKDR Cell HEK 10% FBS IC50, HEK-293 cells expressing inducible KDR, VEGF stimulated. The gist of the method:
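HEK-293 cells with inducible human KDR were treated with compound for 1 h in DMEM (0.25% DMSO final), then lysed. Phospho-KDR was quantified by Meso Scale immunoassay, expressed as percent of control, and IC50 taken where a 4-parameter logistic fit crossed 50 POC.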
In turn, `Cn1cc(CN2CCN(c3ccc(-c4cc(-c5cnn(C)c5)cn5ncc(C#N)c45)cn3)CC2)cn1` [Example 448, 6-(1-methyl-1H-pyrazol-4-yl)-4-(6-(4-((1-methyl-1H-pyrazol-4-yl)methyl)piperazin-1-yl)pyridin-3-yl)pyrazolo[1,5-a]pyridine-3-carbonitrile] gave a pIC50 of 5.76.
On the same count and under the same terms, next, `Cn1cc(-c2cc(-c3ccc(N4CCN(CCc5ccccn5)CC4)nc3)c3c(C#N)cnn3c2)cn1` [Example 395, 6-(1-methyl-1H-pyrazol-4-yl)-4-(6-(4-(2-(pyridine-2-yl)ethyl)piperazin-1-yl)pyridin-3-yl)pyrazolo[1,5-a]pyridine-3-carbonitrile]: 6.31; `CC(C)N1CC(n2cc(-c3cc(-c4ccc(N5CCN(Cc6ccccc6)CC5)nc4)c4c(C#N)cnn4c3)cn2)C1` [Example 596, 4-(6-(4-benzylpiperazin-1-yl)pyridin-3-yl)-6-(1-(1-isopropylazetidin-3-yl)-1H-pyrazol-4-yl)pyrazolo[1,5-a]pyridine-3-carbonitrile]: 6.52; `CCC1CCN(C(=O)N2CCN(c3ccc(-c4cc(-c5cnn(C)c5)cn5ncc(C#N)c45)cn3)CC2)C1` (stereo not drawn) [Example 389, 4-(6-(4-(3-ethylpyrrolidine-1-carbonyl)piperazin-1-yl)pyridin-3-yl)-6-(1-methyl-1H-pyrazol-4-yl)pyrazolo[1,5-a]pyridine-3-carbonitrile]: 6.07.
On to `Cn1cc(-c2cc(-c3ccc(N4CCC5(CCCOC5)C4)nc3)c3c(C#N)cnn3c2)cn1` (stereo not drawn) [Example 529, 4-(6-(7-oxa-2-azaspiro[4.5]decan-2-yl)pyridin-3-yl)-6-(1-methyl-1H-pyrazol-4-yl)pyrazolo[1,5-a]pyridine-3-carbonitrile], for which the negative logarithm of the IC50 (pIC50) was not above 5.30.
The molecule `Cn1cc(-c2cc(-c3ccc(N4C[C@@H]5C[C@H]4CN5Cc4ccccc4)nc3)c3c(C#N)cnn3c2)cn1` [Example 483, 4-(6-((1S,4S)-5-benzyl-2,5-diazabicyclo[2.2.1]heptan-2-yl)pyridin-3-yl)-6-(1-methyl-1H-pyrazol-4-yl)pyrazolo[1,5-a]pyridine-3-carbonitrile] gave a pIC50 of 7.11.
On the same count and under the same terms, next, `Cn1cc(-c2cc(-c3ccc(N4CCN(CCOC5CC5)CC4)nc3)c3c(C#N)cnn3c2)cn1` [Example 407, 4-(6-(4-(2-cyclopropoxyethyl)piperazin-1-yl)pyridin-3-yl)-6-(1-methyl-1H-pyrazol-4-yl)pyrazolo[1,5-a]pyridine-3-carbonitrile]: 6.08; `Cc1cc(C)nc(CN2CCN(c3ccc(-c4cc(-c5cnn(C)c5)cn5ncc(C#N)c45)cn3)CC2)n1` [Example 401, 4-(6-(4-((4,6-dimethylpyrimidin-2-yl)methyl)piperazin-1-yl)pyridin-3-yl)-6-(1-methyl-1H-pyrazol-4-yl)pyrazolo[1,5-a]pyridine-3-carbonitrile]: 6.16.
The same measure, in the same setting: next, `Cc1cc(-c2cc(-c3ccc(N4CCN(Cc5ccccc5)CC4)nc3)c3c(C#N)cnn3c2)on1` [Example 629, 4-(6-(4-benzylpiperazin-1-yl)pyridine-3-yl)-6-(3-methylisoxazol-5-yl)pyrazolo[1,5-a]pyridine-3-carbonitrile]: not above 5.30; `Cn1cc(-c2cc(-c3ccc(N4CCC5(CCCN(C(=O)OC(C)(C)C)C5)C4)nc3)c3c(C#N)cnn3c2)cn1` (stereo not drawn) [Example 518, tert-butyl 2-(5-(3-cyano-6-(1-methyl-1H-pyrazol-4-yl)pyrazolo[1,5-a]pyridin-4-yl)pyridin-2-yl)-2,7-diazaspiro[4.5]decane-7-carboxylate]: 5.33; `CCCN1CCN(c2ccc(-c3cc(-c4cnn(C)c4)cn4ncc(C#N)c34)cn2)CC1` [Example 408, 6-(1-methyl-1H-pyrazol-4-yl)-4-(6-(4-propylpiperazin-1-yl)pyridin-3-yl)pyrazolo[1,5-a]pyridine-3-carbonitrile]: 5.89.
Consider `Cn1cc(-c2cc(-c3ccc(N4CCC5(CCOC5)C4)nc3)c3c(C#N)cnn3c2)cn1` (stereo not drawn) [Example 530, 4-(6-(2-oxa-7-azaspiro[4.4]nonan-7-yl)pyridin-3-yl)-6-(1-methyl-1H-pyrazol-4-yl)pyrazolo[1,5-a]pyridine-3-carbonitrile 2,2,2-trifluoroacetate], for which the pIC50 was 5.81.
The same measure, in the same setting: next, `Cn1cc(-c2cc(-c3ccc(N4CC5CC(C4)N5Cc4ccccc4)nc3)c3c(C#N)cnn3c2)cn1` [Example 489, 4-(6-(6-benzyl-3,6-diazabicyclo[3.1.1]heptan-3-yl)pyridin-3-yl)-6-(1-methyl-1H-pyrazol-4-yl)pyrazolo[1,5-a]pyridine-3-carbonitrile]: 7.71; `Cn1cc(-c2cc(-c3ccc(N4CCN(CC5CC5)CC4)nc3)c3c(C#N)cnn3c2)cn1` [Example 394, 4-(6-(4-(cyclopropylmethyl)piperazin-1-yl)pyridin-3-yl)-6-(1-methyl-1H-pyrazol-4-yl)pyrazolo[1,5-a]pyridine-3-carbonitrile]: 6.34; `Cn1cc(-c2cc(-c3ccc(N4CCN(C(=O)N5CCC(C(F)(F)F)C5)CC4)nc3)c3c(C#N)cnn3c2)cn1` (stereo not drawn) [Example 391, 6-(1-methyl-1H-pyrazol-4-yl)-4-(6-(4-(3-(trifluoromethyl)pyrrolidine-1-carbonyl)piperazin-1-yl)pyridin-3-yl)pyrazolo[1,5-a]pyridine-3-carbonitrile]: 6.01.
In the case of `Cn1cc(-c2cc(-c3ccc(N4CCN(CC5CC(F)(F)C5)CC4)nc3)c3c(C#N)cnn3c2)cn1` [Example 459, 4-(6-(4-((3,3-difluorocyclobutyl)methyl)piperazin-l-yl)pyridin-3-yl)-6-(1-methyl-1H-pyrazol-4-yl)pyrazolo[1,5-a]pyridine-3-carbonitrile], the negative logarithm of the IC50 (pIC50) is not above 5.30.

The same experiment, now with this note: pKDR Cell HEK 10% FBS IC50, HEK-293 cells expressing inducible KDR, VEGF stimulated, 10% FBS.
With `Cn1cc(-c2cc(-c3ccc(N4CCN(C(=O)C[C@H](O)c5ccccc5)CC4)nc3)c3c(C#N)cnn3c2)cn1` [Example 8, (S)-4-(6-(4-(3-hydroxy-3-phenylpropanoyl)piperazin-1-yl)pyridin-3-yl)-6-(1-methyl-1H-pyrazol-4-yl)pyrazolo[1,5-a]pyridine-3-carbonitrile], the pIC50 was 7.00.
Take `C[C@H](C(=O)N1CCN(c2ccc(-c3cc(-c4cnn(C)c4)cn4ncc(C#N)c34)cn2)CC1)c1ccccc1` [Example 15, (S)-6-(1-methyl-1H-pyrazol-4-yl)-4-(6-(4-(2-phenylpropanoyl)piperazin-1-yl)pyridin-3-yl)pyrazolo[1,5-a]pyridine-3-carbonitrile]: the pIC50 was 6.19.
Still for that read-out and setting: next, `Cn1cc(-c2cc(-c3ccc(N4[C@@H]5CC[C@H]4C[C@@H](O)C5)nc3)c3c(C#N)cnn3c2)cn1` [Example 199, 4-(6-((1R,3r,5S)-3-hydroxy-8-azabicyclo[3.2.1]octan-8-yl)pyridin-3-yl)-6-(1-methyl-1H-pyrazol-4-yl)pyrazolo[1,5-a]pyridine-3-carbonitrile]: 6.25; `Cn1cc(-c2cc(-c3ccc(N4CCN(CC(=O)N5CCCC5)CC4)nc3)c3c(C#N)cnn3c2)cn1` [Example 145, 6-(1-methyl-1H-pyrazol-4-yl)-4-(6-(4-(2-oxo-2-(pyrrolidin-1-yl)ethyl)piperazin-1-yl)pyridin-3-yl)pyrazolo[1,5-a]pyridine-3-carbonitrile 2,2,2-trifluoroacetate]: 6.17; `CC(C)C(=O)N1CC2(CCN(c3ccc(-c4cc(-c5cnn(C)c5)cn5ncc(C#N)c45)cn3)CC2)C1` [Example 221, 4-(6-(2-isobutyryl-2,7-diazaspiro[3.5]nonan-7-yl)pyridin-3-yl)-6-(1-methyl-1H-pyrazol-4-yl)pyrazolo[1,5-a]pyridine-3-carbonitrile]: 5.78.
`Cn1cc(-c2cc(-c3ccc(N4CCN(C(=O)C(CO)c5ccccc5)CC4)nc3)c3c(C#N)cnn3c2)cn1` (stereo not drawn) [Example 16, 4-(6-(4-(3-hydroxy-2-phenylpropanoyl)piperazin-1-yl)pyridin-3-yl)-6-(1-methyl-1H-pyrazol-4-yl)pyrazolo[1,5-a]pyridine-3-carbonitrile] gave a pIC50 of 6.36.
Consider `Cn1cc(-c2cc(-c3ccc(N4CCN(C(=O)Cc5c(F)cccc5F)CC4)nc3)c3c(C#N)cnn3c2)cn1` [Example 39, 4-(6-(4-(2-(2,6-difluorophenyl)acetyl)piperazin-1-yl)pyridin-3-yl)-6-(1-methyl-1H-pyrazol-4-yl)pyrazolo[1,5-a]pyridine-3-carbonitrile 2,2,2-trifluoroacetate], for which the negative logarithm of the IC50 (pIC50) is 7.08.
In the case of `Cn1cc(-c2cc(-c3ccc(N4CCN(C(=O)C5CCOCC5)CC4)nc3)c3c(C#N)cnn3c2)cn1` [Example 74, 6-(1-methyl-1H-pyrazol-4-yl)-4-(6-(4-(tetrahydro-2H-pyran-4-carbonyl)piperazin-1-yl)pyridin-3-yl)pyrazolo[1,5-a]pyridine-3-carbonitrile], the pIC50 was 5.87.
The molecule `Cn1cc(-c2cc(-c3ccc(N4CCN(C(=O)C5(c6ccccc6)CCCC5)CC4)nc3)c3c(C#N)cnn3c2)cn1` [Example 24, 6-(1-methyl-1H-pyrazol-4-yl)-4-(6-(4-(1-phenylcyclopentanecarbonyl)piperazin-1-yl)pyridin-3-yl)pyrazolo[1,5-a]pyridine-3-carbonitrile] showed a pIC50 of 6.02.
For `Cn1cc(-c2cc(-c3ccc(N4CCN(S(=O)(=O)CC5CC5)CC4)nc3)c3c(C#N)cnn3c2)cn1` [Example 87, 4-(6-(4-((cyclopropylmethyl)sulfonyl)piperazin-1-yl)pyridin-3-yl)-6-(1-methyl-1H-pyrazol-4-yl)pyrazolo[1,5-a]pyridine-3-carbonitrile], the pIC50 was 8.24.
Consider `Cn1cc(-c2cc(-c3ccc(N4CCN(C(=O)[C@H]5CC[C@@H](O)C5)CC4)nc3)c3c(C#N)cnn3c2)cn1` [Example 12, 4-(6-(4-((1S,3R)-3-hydroxycyclopentane-1-carbonyl)piperazin-1-yl)pyridin-3-yl)-6-(1-methyl-1H-pyrazol-4-yl)pyrazolo[1,5-a]pyridine-3-carbonitrile], for which the pIC50 was 5.92.
